The values below come from patent publication US8431597B2, “Benzimidazole derivatives” (Pfizer Inc., priority 2007, dated 2013).

Counter-ions that a name gives are not always drawn.

The assay deals with T1, Smoothened (SMO) (Mus musculus, UniProt P56726).
T1 construct: C3H10T1/2 cells (ATCC #CCL-226) were split and seeded; endogenous in cells; host or cells: C3H10T1/2 (ATCC #CCL-226)
T1 sequence (P56726 33-793): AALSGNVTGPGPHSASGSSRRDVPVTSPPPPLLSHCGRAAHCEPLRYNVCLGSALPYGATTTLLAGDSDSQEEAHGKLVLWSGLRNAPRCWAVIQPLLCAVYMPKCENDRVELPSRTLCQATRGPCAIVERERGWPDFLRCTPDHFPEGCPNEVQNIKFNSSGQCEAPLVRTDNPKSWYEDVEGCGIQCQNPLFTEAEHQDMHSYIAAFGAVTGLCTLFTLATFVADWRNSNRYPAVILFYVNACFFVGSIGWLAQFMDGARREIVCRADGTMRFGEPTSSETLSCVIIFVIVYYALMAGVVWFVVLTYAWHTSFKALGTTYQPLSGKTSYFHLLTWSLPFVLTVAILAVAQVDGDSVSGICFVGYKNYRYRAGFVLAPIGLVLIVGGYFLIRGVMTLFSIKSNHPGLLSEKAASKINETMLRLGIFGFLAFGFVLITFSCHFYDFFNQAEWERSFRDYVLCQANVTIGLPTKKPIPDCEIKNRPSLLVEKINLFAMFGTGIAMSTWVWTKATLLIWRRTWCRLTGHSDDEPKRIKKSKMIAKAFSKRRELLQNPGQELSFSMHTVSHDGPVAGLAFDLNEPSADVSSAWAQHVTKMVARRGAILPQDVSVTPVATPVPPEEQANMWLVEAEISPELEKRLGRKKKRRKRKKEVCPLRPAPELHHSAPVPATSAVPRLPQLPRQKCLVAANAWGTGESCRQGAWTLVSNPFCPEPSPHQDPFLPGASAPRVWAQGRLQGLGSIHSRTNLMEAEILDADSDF
Description: Smoothened (SMO)/Sonic Hedgehog (SHh) Transient Transcriptional Activation Assay (Gli-luciferase reporter in C3H10T1/2 cells). Format: cell-based, murine. Particulars: C3H 10T1/2, 2 μM compound; transfected C3H10T1/2 cells, recombinant human SHh 250 ng/mL, 20 hours, luciferase readout; read-out: SMO CELL % INHIBITION @ 2 μM. The procedure: As noted above, the compounds of the invention are useful as inhibitors of SMO. • Methods for determining the in vitro activity of these compounds are described below: Smoothened (SMO)/Sonic Hedgehog (SHh) Transient Transcriptional Activation Assay
On Day 1, 2×10^6 C3H10T1/2 cells (ATCC #CCL-226) were split and seeded in 12 mL of growth medium Basal Medium Eagle (BME, Invitrogen #21010-046) supplemented with 2 mM L-glutamine (Invitrogen #25030-081), 0.1 units/mL penicillin and 0.1 μg/mL streptomycin (Invitrogen #15140-122), and 10% Fetal Bovine Serum (FBS, Invitrogen #16140-071) in a T-75 flask (Costar #3376). They were allowed to attach for 4 hours at 37° C., 5% CO2. The cells were then transfected using Fugene 6 (Roch #11 814 443 001) in the following reaction: 48 μL Fugene 6 and 745 μL Opti-MEM (Invitrogen #31985-070) were mixed and allowed to sit at room temperature for 5 minutes. 8 μg of pGL4.14/mGli(CS) DNA (10× murine Gli response elements and minimal CS promoter) and 0.5 μg of pEGFP DNA (Clontech) were added, gently mixed and incubated at room temperature for 20 minutes. This entire transfection mix was then added to the T-75 flask containing the cells. The cells were incubated at 37° C., 5% CO2 for 18-24 hours.
On Day 2, the transfected cells were trypsinized and seeded into white 96 well plates (Costar #3917) in 100 μL/well of growth medium at a concentration of 20,000 cells/well. The cells were allowed to recover for 4 hours before adding serum starvation medium Dulbecco's Modified Eagle Medium (DMEM, Invitrogen #21063-029) supplemented with 2 mM L-glutamine, 0.1 units/mL penicillin and 0.1 μg/mL streptomycin, and 0.5% Calf Serum (CS, Invitrogen #26170-043). The growth media was aspirated off, and the cells were rinsed with 100 μL of starvation media. 95 μL of starvation media was then added to each well. The cells were incubated for 20 hours at 37° C., 5% CO2.
On Day 3, cells were dosed with test compounds at a final concentration ranging from 2 μM to 2 nM. Immediately after dosing cells with compounds, recombinant human sonic hedgehog (SHh, R&D Systems #1845-SH) was add to a final concentration of 250 ng/mL. A 25 μg vial of SHh was reconstituted with 250 μL PBS/0.1% BSA to give a 100 ng/μL working stock. This working stock was then diluted 1:20 in starvation media. The transfected cells were incubated with compounds and SHh for 20 hours at 37° C., 5% CO2.
Luciferase assays were conducted on Day 4 using Dual-Glo Luciferase assay system (Promega #E2940) according to Promega's protocol. Briefly, Dual-Glo luciferase reagent was made up and 100 μL were added to each well of the 96 well plate containing media. Plates were shaken at room temperature for 10 minutes, and then read on TopCount (Perkin-Elmer). The luminescence was recorded.
For the compound `Cc1cc2nc([C@H]3C[C@H](NC(=O)c4ccc5c(c4)OCCO5)CCN3C)[nH]c2cc1C` [Example 49, N-[(2R,4R)-2-(5,6-dimethyl-1H-benzimidazol-2-yl)-1-methylpiperidin-4-yl]-2,3-dihydro-1,4-benzodioxine-6-carboxamide hydrochloride], the inhibition (as a rule, the change of the read-out against control, counted positive when it falls) at 2 µM was 105%.

Take `COc1ccc2[nH]c([C@H]3C[C@H](NC(=O)Nc4ccc(C#N)cc4)CCN3C)nc2c1` [Example 29, 1-(4-cyanophenyl)-3-[(2R,4R)-2-(5-methoxy-1H-benzimidazol-2-yl)-1-methylpiperidin-4-yl]urea hydrochloride]: the inhibition at 2 µM is 108%.

Turning to `Cc1cccc2cc(C(=O)N[C@@H]3CCN(C)[C@@H](c4nc5ccccc5[nH]4)C3)nn12` [Example 118, N-[(2R,4R)-2-(1H-benzimidazol-2-yl)-1-methylpiperidin-4-yl]-7-methylpyrazolo[1,5-a]pyridine-2-carboxamide trifluoroacetate], the inhibition at 2 µM came to 65.1%.

`COc1ccc2[nH]c([C@H]3C[C@H](NC(=O)c4cc5c(cc4Cl)OCCO5)CCN3C)nc2c1` [Example 149, 7-chloro-N-[(2R,4R)-2-(5-methoxy-1H-benzimidazol-2-yl)-1-methylpiperidin-4-yl]-2,3-dihydro-1,4-benzodioxine-6-carboxamide triflouroacetate]: the inhibition at 2 µM turned out to be 35.3%.

In the case of `CN1CC[C@@H](NC(=O)c2cc3ccccc3n2C)C[C@@H]1c1nc2ccccc2[nH]1` [Example 113, N-[(2R,4R)-2-(1H-benzimidazol-2-yl)-1-methylpiperidin-4-yl]-1-methyl-1H-indole-2-carboxamide trifluoroacetate], the inhibition at 2 µM came out at 76.1%.

For `COc1ccc2[nH]c([C@H]3C[C@H](NC(=O)Nc4ccc(OC)nc4)CCN3C)nc2c1` [Example 136, 1-[(2R,4R)-2-(5-methoxy-1H-benzimidazol-2-yl)-1-methylpiperidin-4-y)]-3-(6-methoxypyridin-3-yl)urea hydrochloride], the inhibition at 2 µM was found to be 106%.

For `CN1CC[C@@H](NC(=O)C(F)(F)c2ccccc2)C[C@@H]1c1nc2ccccc2[nH]1` [Example 122, N-[(2R,4R)-2-(1H-benzimidazol-2-yl)-1-methylpiperidin-4-yl]-2(2-difluoro-2-phenylacetamide trifluoroacetate], the inhibition at 2 µM was determined as 57.5%.

For the compound `CC(C)(C)OC(=O)N1C[C@H](NC(=O)Nc2ccc(Cl)c(C(F)(F)F)c2)C[C@H]1c1nc2ccccc2[nH]1` [Example 24, tert-butyl (2S,4R)-2-(1H-benzimidazol-2-yl)-4-[({[4-chloro-3-(trifluoromethyl)phenyl]amino}carbonyl)amino]pyrrolidine-1-carboxylate], the inhibition at 2 µM came to 63.1%.

As to `CN1CC[C@@H](NC(=O)Nc2ccc(C(F)(F)F)cn2)C[C@@H]1c1nc2ccccc2[nH]1` [Example 101, 1-[(2R,4R)-2-(1H-benzimidazol-2-yl)-1-methylpiperidin-4-yl]-3-[5-(trifluoromethyl)pyridin-2-yl]urea hydrochloride], the inhibition at 2 µM came to 62.5%.

Consider `Cc1ccc2nc([C@@H]3C[C@H](NC(=O)Nc4ccc(Cl)c(C(F)(F)F)c4)CN3C)[nH]c2c1` [Example 22, 1-[4-chloro-3-(trifluoromethyl)phenyl]-3-[(3S,5S)-1-methyl-5-(6-methyl-1H-benzimidazol-2-yl)pyrrolidin-3-yl]urea], for which the inhibition at 2 µM turned out to be 102%.

For the compound `CN1CC[C@@H](NC(=O)Nc2ccc(C(F)(F)F)cc2)C[C@@H]1c1nc2ccccc2[nH]1` [Example 18, 1-[(2R,4R)-2-(1H-benzimidazol-2-yl)-1-methylpiperidin-4-yl]-3-[4-(trifluoromethyl)phenyl]urea hydrochloride], the inhibition at 2 µM was found to be 110%.

Take `Cc1ccc2nc([C@@H]3C[C@@H](NC(=O)Nc4ccc(Cl)c(C(F)(F)F)c4)CN3C)[nH]c2c1` [Example 17, 1-[4-chloro-3-(trifluoromethyl)phenyl]-3-[(3R,5S)-1-methyl-5-(6-methyl-1H-benzimidazol-2-yl)pyrrolidin-3-yl]urea]: the inhibition at 2 µM amounted to 63.2%.

With `CN1CC[C@@H](NC(=O)c2ccc3c(c2)OCCO3)C[C@H]1c1nc2ccccc2[nH]1` [Example 42, N-[(2S,4R)-2-(1H-benzimidazol-2-yl)-1-methylpiperidin-4-yl]-2,3-dihydro-1,4-benzodioxine-6-carboxamide hydrochloride], the inhibition at 2 µM is 106%.

In the case of `N#Cc1ccc(NC(=O)N[C@@H]2CCN(Cc3ccccc3)[C@@H](c3nc4ccccc4[nH]3)C2)cc1` [Example 61, 1-[(2R,4R)-2-(1H-benzimidazol-2-yl)-1-benzylpiperidin-4-yl]-3-(4-cyanophenyl)urea], the inhibition at 2 µM came out at 99.5%.

For `COc1cccc(C(=O)N[C@@H]2CCN(C)[C@@H](c3nc4ccccc4[nH]3)C2)c1` [Example 112, N-[(2R,4R)-2-(1H-benzimidazol-2-yl)-1-methylpiperidin-4-yl]-3-methoxybenzamide trifluoroacetate], the inhibition at 2 µM is 81.7%.

With `CN1CC[C@@H](NC(=O)c2ccc3c(c2)OCCO3)C[C@@H]1c1nc2ccc(F)cc2[nH]1` [Example 45, N-[(2R,4R)-2-(6-fluoro-1H-benzimidazol-2-yl)-1-methylpiperidin-4-yl]-2,3-dihydro-1,4-benzodioxine-6-carboxamide hydrochloride], the inhibition at 2 µM stood at 105%.

`CN1CC[C@@H](NC(=O)Nc2cccnc2)C[C@@H]1c1nc2ccccc2[nH]1` [Example 80, 1-[(2R,4R)-2-(1H-benzimidazol-2-yl)-1-methylpiperidin-4-yl]-3-pyridin-3-ylurea hydrochloride]: the inhibition at 2 µM stood at 98%.

`Cc1ccc2nccc(C(=O)N[C@@H]3CCN(C)[C@@H](c4nc5ccccc5[nH]4)C3)c2c1` [Example 103, N-[(2R,4R)-2-(1H-benzimidazol-2-yl)-1-methylpiperidin-4-yl]-6-methylquinoline-4-carboxamide trifluoroacetate]: the inhibition at 2 µM worked out at 100%.

As to `Cc1ccc(NC(=O)N[C@@H]2CCN(C)[C@@H](c3nc4ccc(F)cc4[nH]3)C2)cn1` [Example 132, 1-[(2R,4R)-2-(6-fluoro-1H-benzimidazol-2-yl)-1-methylpiperidin-4-yl]-3-(6-methylpyridin-3-yl)urea hydrochloride], the inhibition at 2 µM was determined as 108%.

For `CC(=O)c1c(C)[nH]c(C(=O)N[C@@H]2CCN(C)[C@@H](c3nc4ccccc4[nH]3)C2)c1C` [Example 50, 4-acetyl-N-[(2R,4R)-2-(1H-benzimidazol-2-yl)-1-methylpiperidin-4-yl]-3,5-dimethyl-1H-pyrrole-2-carboxamide hydrochloride], the inhibition at 2 µM came out at 105%.

With `CN1CC[C@@H](NC(=O)Nc2ccc3c(c2)OCCO3)C[C@@H]1c1nc2ccccc2[nH]1` [Example 67, 1-[(2R,4R)-2-(1H-benzimidazol-2-yl)-1-methylpiperidin-4-yl]-3-(2,3-dihydro-1,4-benzodioxin-6-yl)urea hydrochloride], the inhibition at 2 µM was determined as 103%.

On to `CN1CC[C@@H](NC(=O)Nc2ccc(Cl)c(C(F)(F)F)c2)C[C@@H]1c1nc2ccccc2[nH]1` [Example 26, 1-[(2R,4R)-2-(1H-benzimidazol-2-yl)-1-methylpiperidin-4-yl]-3-[4-chloro-3-(trifluoromethyl)phenyl]urea hydrochloride], for which the inhibition at 2 µM worked out at 109%.
